Experimental data taken from patent US8343979B2, “Use of alkanoyl L-carnitine for the treatment of erectile dysfunction” (Sigma-Tau Industrie Farmaceutiche Riunite S.p.A., priority 2001, dated 2013).

Assays:
[1] = tested on: erectile dysfunction, diabetics or nondiabetics patients; experiment: preliminary experimental data on propionyl L-carnitine in erectile dysfunction; format: in vivo, human; conditions: not previously treated with sildenafil
[2] = tested on: diabetics patients suffering from E.D.; experiment: clinical trial of propionyl L-carnitine plus sildenafil in sildenafil non-responders (dynamic colour Doppler ultrasonography, IIEF); format: in vivo, human; conditions: 2 g/day propionyl L-carnitine orally daily in combination with 50 mg sildenafil orally twice a week; diabetic E.D. patients not responder to sildenafil alone; after 3 and 6 months
Protocol: In this trial, 24 diabetics patients suffering from E.D. which were not responder to the treatment with sildenafil alone were enrolled.
2 g/day (1 g tablet twice a day) of propionyl L-carnitine were orally administered daily to the patients, and 50 mg sildenafil orally, twice a week.
In this trial, 30 diabetics patients suffering from E.D. which were not responder to the treatment with sildenafil alone were enrolled.
2 g/day (1 g tablet twice a day) of propionyl L-carnitine, were orally administered daily to the patients, and 50 mg sildenafil orally, twice a week.

CCC(=O)O[C@H](CC(=O)[O-])C[N+](C)(C)C [propionyl L-carnitine]
usefulness for treating the erectile dysfunction [1]: useful for treating the erectile dysfunction | arterial flux by dynamic colour Doppler ultrasonography [2]: improvement of the arterial flux | satisfactory clinical response evaluated with IIEF, share of treated patients [2]: 60%
